# Patent US12421216B2, “Voruciclib polymorphs and methods of making and using thereof” (MEI PHARMA, INC., priority 2019, dated 2025)
# “Also recorded” adds a separate entry of the source. Where a name gives a salt, the structure may show the parent alone.
# Key:
# Type in all cases: physicochemical
# [1] = Solubility of salts in water and in 0.2 M phosphate buffer pH 6 at 37° C. after 4 hours (HPLC-DAD); details: for Dissolution behaviour in aqueous media (gelling, wettability): salt screen, water and/or 0.2 M phosphate buffer pH 6; for pH (4 h): pH at end of equilibration
# Procedure, shortened: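 About 5 mg of salt received 200 μL aliquots of water or 0.2 M phosphate buffer pH 6, up to 1 mL, and was stirred at 37 °C for 4 h. After centrifugation and 0.2 […] PTFE filtration, dissolved concentration was determined by HPLC-DAD against voruciclib calibration, and final pH was recorded.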
# [2] = Qualitative solubility determination in water at room temperature, with observation of gel formation; details: for Behaviour upon addition of water (gel formation): small amount of water added to solid
# Experimental: The aqueous solubility of Oxa2 (starting material) was assessed by the qualitative solubility determination approach. To 5.4 mg of Oxa2, water was added in steps of 50 μl until the material was dissolved (Exp. ID: SAS1). Visual inspection by the naked eye was used to decide whether complete dissolution occurred.
# After the addition of 7.5 ml water, Oxa2 was not dissolved in water at room temperature. The suspension was heated to 50° C. upon which complete dissolution occurred, as indicated by a clear solution.
# The aqueous solubility of Pho1 (Exp. ID: TCP23) was assessed by the qualitative solubility determination approach. To 5.6 mg of Pho1, water was added in steps of 50 μl until the material was dissolved (Exp. ID: SAS2). Visual inspection by the naked eye was used to decide whether complete dissolution occurred. After the addition of 700 μl water, Pho1 was not dissolved in water at room temperature whereas after a subsequent addition of 200 μl water (900 μl in total), the material completely dissolved.
# The solubility of Mao1 in water was determined by adding small aliquots of water to the material until it was dissolved.
# [3] = Physical stability upon exposure to accelerated aging conditions (AAC, 40° C./75% RH), re-analysis by HT-XRPD; details: for Physical stability upon exposure to AAC: HT-XRPD before and after; for Stable during AAC: salt screen solids
# [4] = Dynamic Vapor Sorption (DVS) hygroscopicity; details: for Water uptake: 25° C./80% RH; for Hygroscopicity classification: European Pharmacopoeia classification, water uptake at 25° C./80% RH; for Solid form recovered after DVS analysis: XRPD after sorption-desorption-sorption cycle
# Experimental: (§1) Differences in hygroscopicity (moisture uptake) of the various forms of a solid material provided a measure of their relative stability at increasing relative humidity. Moisture sorption isotherms of small samples were obtained using a DVS-1 system from Surface Measurement Systems (London, UK); this instrument is suitable for use with a few milligrams of sample, with an accuracy of 0.1 μg. The relative humidity was varied during sorption-desorption-sorption (45-95-0-45% RH) at a constant temperature of 25° C. Weight equilibration per step was set at dm/dt <0.0002 for a minimum of 1 hour or maximum of 6 hours. Afterwards the sample was measured by HT-XRPD.
# The hygroscopicity was classified according to the European Pharmacopoeia Hygroscopicity classification.
# as §1, with “(40-95-0-40%” for “(45-95-0-45%”
# as §1, with “use with as little as a few” for “use with a few”
# The hygroscopicity of Mao1 was determined by DVS. The powder was exposed to a RH profile consisting of sorption/desorption/sorption cycles (40-95-0-40% RH) performed at 25° C. The water vapor uptake gained during the sorption half-cycle was 0.75%.
# [5] = 0.2 M phosphate buffer pH 6, 37° C., 4 hours
# [6] = 0.2M phosphate buffer pH 6, 37° C., 4 hours, about 1 mg salt in 1 mL
# [7] = 0.2M phosphate buffer pH 6, 37° C., 4 hours, about 5 mg salt in 1 mL
# [8] = 0.2 M phosphate buffer pH 6, 37° C., 4 hours, XRPD
# [9] = 0.2M phosphate buffer pH 6, 37° C., about 1 mg salt in 1 mL
# [10] = 0.2M phosphate buffer pH 6, 37° C., about 5 mg salt in 1 mL
# [11] = water, 37° C., 4 hours, about 1 mg salt in 1 mL
# [12] = water, 37° C., 4 hours, about 5 mg salt, up to 1 mL
# [13] = water, 37° C., about 1 mg salt in 1 mL
# [14] = water, 37° C., about 5 mg salt, up to 1 mL
"Solubility in phosphate buffer [1, 5]","solubility [1, 6]","solubility [1, 7]","Form (4 h) of residual solid [1, 9]","pH (4 h) [1, 9]","Form (4 h) of residual solid [1, 10]","pH (4 h) [1, 10]","solubility [1, 11]","solubility [1, 12]","pH (4 h) [1, 13]","pH (4 h) [1, 14]","Stable during AAC ([3]; 40° C./75% RH, 2 days)",Water uptake ([4]; DVS),Hygroscopicity classification [4],Solid form recovered after DVS analysis [4],SMILES,"Dissolution behaviour in aqueous media (gelling, wettability) [1]",Behaviour upon addition of water (gel formation) [2],"Solids recovered / salt dissociation after solubility determination in buffer [1, 8]","Physical stability upon exposure to AAC ([3]; 40° C./75% RH, 2 days)",further results
,,,,,,,,,,,,,,,"CN1CC[C@H](c2c(O)cc(O)c3c(=O)cc(-c4ccc(C(F)(F)F)cc4Cl)oc23)[C@H]1CO (stereo in doubt) [voruciclib malonate, 2-(2-chloro-4-(trifluoromethyl)phenyl)-5,7-dihydroxy-8-((2S,3R)-2-(hydroxymethyl)-1-methylpyrrolidin-3-yl)-4H-chromen-4-one malonate salt]",no gelling,gelling was not observed when exposed to water,,,"Solubility pH 6 [1, 5]: 0.07 mg/mL; Solubility water ([1]; water, 37° C., 4 hours): 4400 µg/mL; solubility at 4 h ([1]; water, 37 °C, thermodynamic from solid, secondary salt screen (FIG. 290)): > 5000 µg/mL"
70 µg/mL,20 µg/mL,70 µg/mL,Free,6.2,Free,5.8,(0.9) mg/mL,4440 µg/mL,4.1,3.5,Yes,0.15%,non-hygroscopic,No solid form conversion was observed,CN1CC[C@@H](c2c(O)cc(O)c3c(=O)cc(-c4ccc(C(F)(F)F)cc4Cl)oc23)[C@@H]1CO.O=C(O)CC(=O)O [Mao1],there was no gelling or increase in viscosity observed,no gel-formation was observed; also recorded: gel formation was not observed,dissociation of the salt occurred,physically stable upon exposure to AAC; also recorded: physically stable upon exposure to stress conditions,"Solubility in water ([1]; water, 37° C., 4 hours): 4400 µg/mL; Solids recovered after solubility determination in water ([1]; water, 37° C., 4 hours, XRPD): the solids recovered were still identical to Mao1; Form (4 h) of residual solid [1, 14]: Mao1; Physically stable ([3]; malonate salt forms, exposure to AAC 40° C./75% RH, 2 days): Yes; Solid forms: Ambient-dried solid (AAC) ([3]; malonate salt thermocycling experiments, label = form of the ambient-dried solid before AAC, 40° C./75% RH, 2 days, HT-XRPD): Mao1; Solid forms: Evap. ML (AAC) ([3]; malonate salt thermocycling experiments, label = form of the solid from the evaporated mother liquor before AAC, 40° C./75% RH, 2 days, HT-XRPD): Mao1; Solid forms: Vacuum-dried solids (AAC) ([3]; malonate salt thermocycling experiments, label = form of the vacuum-dried solid before AAC, 40° C./75% RH, 2 days, HT-XRPD): Mao1; Liquid phase AAC (XRPD form after accelerated aging) ([3]; solids from evaporated mother liquors of the salt screen, 40° C./75% RH for 2 days, HT-XRPD): Mao1; Solubility in water at room temperature ([2]; qualitative determination by adding aliquots of water, visual): approximately 13 mg/ml; Water uptake gained during the first sorption half-cycle ([4]; DVS, 25° C., 40 to 95% RH): 0.75%"
about 0.03 mg/mL,hazy,30 µg/mL,Free,6.0,Free,5.8,(0.9) mg/mL,(5.2) mg/mL,4.6,3.7,Yes,approximately 5.0%,moderately hygroscopic,Pho1 was recovered,CN1CCC(c2c(O)cc(O)c3c(=O)cc(-c4ccc(C(F)(F)F)cc4Cl)oc23)C1CO.O=P(O)(O)O (stereo not shown) [Pho1],no gelling was observed,became a gel when exposed to water; also recorded: became a gel upon addition of water; also recorded: became a gel-like material,salt had dissociated in the buffer solution,the only stable from when exposed to advance aging conditions; also recorded: physically stable under AAC for 2 days; also recorded: physically stable upon exposure to AAC for two days; also recorded: remained stable,"Solid phase AAC (XRPD form after accelerated aging) ([3]; precipitated solids of the salt screen, dried under vacuum at 50° C., 40° C./75% RH for 2 days, HT-XRPD): Pho1; Stability against variable humidity conditions ([4]; between 0-95% RH): stable against variable humidity conditions"
